This note sets out measurements from US7410986B2, “4-6-diphenyl pyridine derivatives as antiinflammatory agents” (Bayer Aktiengesellschaft, priority 2000, dated 2008).

The target in one assay is T1, human IKK-β (Homo sapiens, UniProt O14920).
T1 construct: A cDNA fragment encoding human IKK-β open reading frame was generated by PCR; His; made in house; host or cells: Sf21 insect cells (baculovirus); the GST-IκBα substrate was made in E. coli
T1 sequence (O14920 1-756): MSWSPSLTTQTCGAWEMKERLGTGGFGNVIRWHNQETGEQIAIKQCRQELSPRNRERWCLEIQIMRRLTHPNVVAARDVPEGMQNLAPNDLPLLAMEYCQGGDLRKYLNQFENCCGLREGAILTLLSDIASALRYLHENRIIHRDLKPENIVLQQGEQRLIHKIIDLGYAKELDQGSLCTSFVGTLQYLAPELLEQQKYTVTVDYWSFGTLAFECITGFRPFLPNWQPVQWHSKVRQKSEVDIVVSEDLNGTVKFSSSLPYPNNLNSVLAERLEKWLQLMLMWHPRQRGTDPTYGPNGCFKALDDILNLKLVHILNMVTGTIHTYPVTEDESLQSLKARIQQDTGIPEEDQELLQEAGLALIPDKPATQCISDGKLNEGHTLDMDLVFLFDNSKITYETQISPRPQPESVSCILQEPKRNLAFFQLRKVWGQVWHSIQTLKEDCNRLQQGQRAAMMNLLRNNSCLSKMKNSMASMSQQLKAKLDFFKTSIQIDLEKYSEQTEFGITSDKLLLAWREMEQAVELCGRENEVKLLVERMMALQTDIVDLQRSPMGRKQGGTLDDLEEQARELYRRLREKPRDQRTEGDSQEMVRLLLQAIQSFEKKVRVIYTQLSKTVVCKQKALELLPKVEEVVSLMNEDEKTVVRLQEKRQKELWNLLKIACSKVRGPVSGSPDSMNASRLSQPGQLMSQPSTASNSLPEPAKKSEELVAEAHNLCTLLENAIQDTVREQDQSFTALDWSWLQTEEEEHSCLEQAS
The assay can be described thus: IKK-β kinase inhibitory assay. The assay is classed as biochemical. The following applies: compounds of about 40 to 90% purity, read-out: In vitro activity grade (invitro, IC50). An outline of the steps: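 His-tagged human IKK-β from baculovirus-infected Sf21 cells (final 0.6 μg/ml) with biotinylated GST-IκBα (1-54) (final 0.2 μM) in Tris-HCl pH 7.6/MgCl2 buffer with 2.5% DMSO compound. Reaction started with ATP plus [γ-^33P] ATP, 2 hrs at room temperature; EDTA-stopped, substrate captured on streptavidin plates and bound radioactivity counted by scintillation.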

In assay [1] the test system is RANTES production in response to TNF-α from A549 cells. Put plainly: RANTES production in response to TNF-α from A549 cells. The following applies: 100 ng/ml TNF-α, compounds of about 40 to 90% purity, read-out: Cellular activity grade (A549, IC50). The assay is classed as cell-based, human.

Structures can show the parent of a compound that is named as a salt. Where two headings read alike, the source gives them in different places. Where only a bound is given, the exact number is not on record here.

Consider `Nc1nc(-c2ccccc2O)cc(-c2cccc(NC(=O)CCN3CCCCC3)c2)c1CO` [Example 7-3, N-{3-[2-amino-3-(hydroxymethyl)-6-(2-hydroxyphenyl)-4-pyridinyl]phenyl}-3-(1-piperidinyl)propanamide], for which the IC50 (in general, the concentration that inhibits the measured activity by half) at human IKK-β was in the range of 500 to 2000 nM; in assay [1] (Homo sapiens, A549, 24 h), 1 to 10 µM.

Regarding `CC(=O)Nc1cccc(-c2cc(-c3ccccc3O)nc(N)c2C#N)c1` [Example 1-14], the IC50 on human IKK-β is > 10000 nM; in assay [1] (Homo sapiens, A549, 24 h), > 10 µM.

As for `N#Cc1c(-c2cc(NC(=O)CCN3CCCCC3)ccc2Cl)cc(-c2ccccc2O)nc1N` [Example 2-10], the 50% inhibitory concentration (IC50) fell in the range of 500 to 2000 nM at human IKK-β and 1 to 10 µM in assay [1] (Homo sapiens, A549, 24 h).

`N#Cc1c(-c2cccc(NC(=O)CCN3CCCCC3)c2)cc(-c2ccccc2O)nc1N` [Example 2-1, N-{3-[2-amino-3-cyano-6-(2-hydroxyphenyl)-4-pyridinyl]phenyl}-3-(1-piperidinyl)propanamide hydrochloride]: the half-inhibitory concentration (IC50) was in the range of 500 to 2000 nM at human IKK-β and 1 to 10 µM in assay [1] (Homo sapiens, A549, 24 h).

Regarding `N#Cc1c(-c2cccc(C(=O)NCCN3CCCCC3)c2)cc(-c2ccccc2O)nc1N` [Example 6-1, 3-[2-amino-3-cyano-6-(2-hydroxyphenyl)-4-pyridinyl]-N-[2-(1-piperidinyl)ethyl]benzamide trifluoroacetate], the IC50 at human IKK-β is 2000 to 10000 nM; in assay [1] (Homo sapiens, A549, 24 h), 1 to 10 µM.

Turning to `N#Cc1c(-c2ccc(N3CCC(NC(=O)C(F)(F)F)C3)c(NC(=O)CCN3CCCCC3)c2)cc(-c2ccccc2O)nc1N` (stereo not drawn) [Example 3-17], the 50% inhibitory concentration (IC50) at human IKK-β was < 500 nM; in assay [1] (Homo sapiens, A549, 24 h), 1 to 10 µM.

As to `CCOC(=O)C1CCN(CCC(=O)Nc2cccc(-c3cc(-c4ccccc4O)nc(N)c3C#N)c2)CC1` [Example 4-26], the concentration for half-maximal inhibition (IC50) on human IKK-β was 500 to 2000 nM; in assay [1] (Homo sapiens, A549, 24 h) it was > 10 µM.

Consider `N#Cc1c(-c2cccc(NC(=O)CCN3CCCCC3)c2)cc(-c2ncccc2O)nc1N` [Example 2-17], for which the half-maximal inhibitory concentration (IC50) is 500 to 2000 nM at human IKK-β and > 10 µM in assay [1] (Homo sapiens, A549, 24 h).

In the case of `N#Cc1c(-c2cccc(N)c2)cc(-c2ccccc2O)nc1N` [Example 1-08], the half-inhibitory concentration (IC50) at human IKK-β was > 10000 nM; in assay [1] (24 hrs), > 10 µM.

As to `N#Cc1c(-c2cc(NC(=O)CCN3CCCCC3)ccc2F)cc(-c2ccccc2O)nc1N` [Example 2-14], the IC50 lay within 500 to 2000 nM at human IKK-β and 1 to 10 µM in assay [1] (Homo sapiens, A549, 24 h).

As to `N#Cc1c(-c2cccc(NC(=O)CN3CCNCC3)c2)cc(-c2ccccc2O)nc1N` [Example 4-07], the concentration for half-maximal inhibition (IC50) at human IKK-β fell in the range of 500 to 2000 nM; in assay [1] (Homo sapiens, A549, 24 h), 1 to 10 µM.

Turning to `N#Cc1c(-c2cccc(NC(=O)CNCCCO)c2)cc(-c2ccccc2O)nc1N` [Example 4-20], the IC50 is < 500 nM on human IKK-β and > 10 µM in assay [1] (Homo sapiens, A549, 24 h).

`N#Cc1c(-c2cccc(C(=O)O)c2)cc(-c2ccccc2O)nc1N` [Example 5-1, Sodium 3-[2-amino-3-cyano-6-(2-hydroxyphenyl)-4-pyridinyl]benzoate]: the 50% inhibitory concentration (IC50) on human IKK-β was 2000 to 10000 nM; in assay [1] (Homo sapiens, A549, 24 h), > 10 µM.

On to `COc1cccc(O)c1-c1cc(-c2cccc(NC(=O)C(O)CCC(=O)O)c2)c(C#N)c(N)n1` (stereo not drawn) [Example 1-13], for which the half-inhibitory concentration (IC50) is 500 to 2000 nM on human IKK-β and > 10 µM in assay [1] (Homo sapiens, A549, 24 h).

Regarding `N#Cc1c(-c2cccc(NC(=O)C(O)CCC(=O)O)c2)cc(-c2ncccc2O)nc1N` (stereo not drawn) [Example 1-22], the IC50 on human IKK-β was 500 to 2000 nM; in assay [1] (Homo sapiens, A549, 24 h), > 10 µM.

`N#Cc1c(-c2ccc(NC(=O)CCN3CCCCC3)cc2)cc(-c2ccccc2O)nc1N` [Example 2-05]: the half-inhibitory concentration (IC50) at human IKK-β is 500 to 2000 nM; in assay [1] (Homo sapiens, A549, 24 h) it was > 10 µM.

Regarding `N#Cc1c(-c2cccc(NC(=O)CCN3CCCC4CCCCC43)c2)cc(-c2ccccc2O)nc1N` (stereo not drawn) [Example 4-15], the IC50 on human IKK-β was 500 to 2000 nM; in assay [1] (Homo sapiens, A549, 24 h) it was 1 to 10 µM.

For the compound `N#Cc1c(-c2ccc(Cl)c(N)c2)cc(-c2ccccc2O)nc1N` [Example 2-19], the concentration for half-maximal inhibition (IC50) was > 10000 nM at human IKK-β and 1 to 10 µM in assay [1] (Homo sapiens, A549, 24 h).

For the compound `N#Cc1c(-c2cccc(NC(=O)CN3CCN(CCO)CC3)c2)cc(-c2ccccc2O)nc1N` [Example 4-08], the 50% inhibitory concentration (IC50) on human IKK-β lay within 500 to 2000 nM; in assay [1] (Homo sapiens, A549, 24 h), 1 to 10 µM.

For the compound `N#Cc1c(-c2cccc(NC(=O)C3CCC(=O)N3)c2)cc(-c2ccccc2O)nc1N` (stereo not drawn) [Example 1-05], the IC50 on human IKK-β is 2000 to 10000 nM; in assay [1] (Homo sapiens, A549, 24 h) it was > 10 µM.

As to `CCOC(=O)C1CCCN(CCC(=O)Nc2cccc(-c3cc(-c4ccccc4O)nc(N)c3C#N)c2)C1` (stereo not drawn) [Example 4-27], the IC50 was in the range of 2000 to 10000 nM on human IKK-β and 1 to 10 µM in assay [1] (Homo sapiens, A549, 24 h).

In the case of `CC(C)C[C@H](N)C(=O)Nc1cc(-c2cc(-c3ccccc3O)nc(N)c2C#N)ccc1N(C)Cc1ccccc1` [Example 3-15], the 50% inhibitory concentration (IC50) at human IKK-β fell in the range of 2000 to 10000 nM; in assay [1] (Homo sapiens, A549, 24 h), 1 to 10 µM.

In the case of `CS(=O)(=O)Nc1cccc(-c2cc(-c3ccccc3O)nc(N)c2C#N)c1` [Example 1-06], the IC50 at human IKK-β was 2000 to 10000 nM; in assay [1] (Homo sapiens, A549, 24 h) it was 1 to 10 µM.

For `CN(C)[C@H]1CCN(c2ccc(-c3cc(-c4ccccc4O)nc(N)c3C#N)cc2NC(=O)CNCC2CC2)C1` [Example 3-14], the half-maximal inhibitory concentration (IC50) was < 500 nM at human IKK-β and 1 to 10 µM in assay [1] (Homo sapiens, A549, 24 h).
